Experimental data: paper PMC10138233 (PLOS ONE, 2023)

Experiments:
[1] = system: SH-SY5Y (human neuroblastoma) cell line; assay: MTT cell viability assay; conditions: 48 h
Procedure: (§1) This study utilized SH-SY5Y (human neuroblastoma) cell lines. […] After dissolving the cell line stored in a nitrogen tank for long-term use, the cells were removed from the culture dish with a 0.25 Trypsin/EDTA solution when they reached 70% density in the culture flasks. The cells were incubated in DMEM (Capricorn) supplemented with 10% heat-inactivated fetal bovine serum (FBS) and 0.1 mg/ml of penicillin at 37°C with 5% CO2. The medium was refreshed every 48 hours, and passages were made every 5 days based on cell confluency.
The MTT (3-(4,5-dimethylthiazol-2-yl)-2,5-diphenyltetrazolium bromide) assay is a commonly used colorimetric assay to measure cellular viability. […] The amount of formazan produced can be measured by determining the absorbance of the solution at a specific wavelength, which is proportional to the number of viable cells. This assay is widely used in cell biology and drug discovery research to evaluate the cytotoxic effects of various agents on cell viability.
In this study, the MTT assay was selected as the cell viability test. 12,500 cells were seeded per well in a 96-well plate. The cells were then incubated at 37°C with 5% CO2 for 24 h. After 24 h, the old medium was removed and drugs prepared by serial dilution in 100 μl of DMEM within the determined concentration range were applied to three wells, with one well selected as a control (untreated). The plate was then incubated at 37°C with 5% CO2 for another 48 h. After 48 h, […] of 10% MTT (Roche) solution in DMEM was added to each well, and two empty wells were added with only MTT solution for background measurement. After 4 h, 100 μl of solubilizing buffer was added to each well. The plate was incubated at 37°C with 5% CO2 for 16 h. After 16 h, the cell number in each sample was determined by measuring the absorbance spectrophotometrically at […] using a microplate reader (OMEGA). The data was used to determine the percentage relative to the control and create a dose-cell viability graph.
(§2) All the analysis data from the RTCA device and the data generated from the MARS application using the microplate reader (OMEGA) were calculated in the GraphPad Prism 9.5.1 version using the ordinary one-way ANOVA multiple comparisons Tukey test. The results were graphically represented in Excel. Logarithmic calculations were made from the dose-response graph in Excel to obtain the IC50 values.

[2] = system: SH-SY5Y (human neuroblastoma) cell line; assay: xCELLigence Real Time Cell Analysis (RTCA) of cell viability/proliferation
Procedure: as §1
RTCA system is an analytical technique that follows cellular events such as proliferation by measuring the electric impedance passing through microelectrodes integrated beneath 96-well special plates in real-time. A 16-well e-plate compatible with the RTCA device was used, with 8 wells by 2. Firstly, 100 μl of cell culture was added to the plates to obtain the background density. Then, 3x10^4 cells were seeded in 100 μl of culture medium on top of the culture. After 24 h, the determined concentration ranges were applied.
Therefore, in this study, the concentrations of 5-10-15-25-50 μM were applied to find the optimum dose. […] There was only one study on a different cell line for quinine. […] The concentration range of 25-50-60-70-75-80-100 μM was chosen for etoperidone based on cell viability tests conducted with its analogue, trazadone.
For each selected dose, the drug was applied to two different wells. The first two wells were designated as the control group without drug application. The growth curve data was obtained from the graph generated by the device 48 h after drug application. The RTCA was repeated three times for each drug group. The IC50 calculations and the percent cell viability graphs compared to the control group were obtained from the data obtained from the three repeats.
as §2

Row | Compound | cytotoxicity [1] | concentration up to which no cytotoxicity was observed (cell index) ([2]; 48 h, RTCA) [µM] | cytotoxicity ([2]; 48 h, RTCA, 150-4800 μM) | IC50 ([2]; Homo sapiens, 48 h, read-out: IC50 ± SEM) [mM] | harmful effect on cell viability ([2]; based on both RTCA and MTT) | concentration (and below) with cell viability close to the control, no cytotoxicity [1] [µM] | cytotoxic concentration in correlation with RTCA findings [1] [µM] | concentration that significantly reduced cell viability compared to the control group (p < 0.001) ([2]; 48 h, RTCA) [µM] | concentration that significantly reduced cell viability compared to the control group (p < 0.001) ([2]; 48 h, RTCA, listed as galantamine) [µM] | safe optimum concentration that does not harm cell viability ([2]; based on both RTCA and MTT) [µM]
1 | Cc1ncc(C[n+]2csc(CCO)c2C)c(N)n1 [Thiamine] | did not show any cytotoxic effect at any concentration | ≤ 4800 | no significant cytotoxicity at any applied concentration | 18.8 | no dose of Thiamine applied exhibited harmful effects |  |  |  |  | 
2 | COc1ccc2c3c1O[C@H]1C[C@@H](O)C=C[C@@]31CCN(C)C2 [Galantamine] |  | ≤ 10 |  |  |  | ≤ 10 | 25 | 100 | 25 to 50 | 10
3 | Nc1nc2[nH]cc(CN[C@H]3C=C[C@H](O)[C@@H]3O)c2c(=O)[nH]1 [Queuine] |  | ≤ 1.25 |  |  |  | ≤ 1.25 | 5 | 5 |  | 1.25
4 | CCc1nn(CCCN2CCN(c3cccc(Cl)c3)CC2)c(=O)n1CC [Etoperidone] |  | ≤ 70 |  |  |  | ≤ 70 | 100 | 100 |  | 70
